From patent US5719154A, “Oxazolidinone antibacterial agents having a six-membrane heteroaromatic ring” (priority 1996, dated 1998)

Tests used:
[1] = tested on: S. aureus UC ® No. 9213; assay: Murine Assay, in vivo antimicrobial activity (ED50 from mortality ratios) against S. aureus UC No. 9213; parameters: species or system Staphylococcus aureus (infected female mice); settings: oral or subcutaneous, survival six days; for ED50: Staphylococcus aureus, UC9213, 144 h, female mice infected intraperitoneally with S. aureus UC No. 9213, drug one hour and five hours after infection, probit analysis
Procedure: Antimicrobial activity is tested in vivo using the Murine Assay procedure. Groups of female mice (six mice weighing 18-20 grams each) are injected intraperiteneally with bacteria which are thawed just prior to use and suspended in brain heart infusion with 4% brewers yeast (Staphylococcus aureus) or brain heart infusion (Streptecoccus species). Antibiotic treatment at six dose levels per drug is administered one hour and five hours after infection by either oral intubation or subcutaneous routes. Survival is observed daily for six days. ED50 values based on mortality ratios are calculated using probit analysis. The subject compounds are compared against drug U-100592 as controls. […] The detailed information with respect to the structure and in vivo efficacy evaluations of U-100592 is summarized in Upjohn Oxazolidinone Antibacterial Agents, Posters Presented at the 35th Interscience Conference on Antimicrobial Agents and Chemotherapy, San Francisco, 17-20 September 1995.

[2] = tested on: bacteria (Staphylococcus aureus or Streptecoccus species); settings: extensively evaluated in this animal model versus vancomycin; cited from earlier work

CC(=O)NC[C@H]1CN(c2ccc(N3CCN(c4ncccn4)CC3)c(F)c2)C(=O)O1 [Example 1]
ED50 [1]: 6.2 mg/kg

CC(=O)NC[C@H]1CN(c2ccc(N3CCN(c4ccncn4)CC3)c(F)c2)C(=O)O1 [Example 2]
ED50 [1]: 4.4 mg/kg

CC(=O)NC[C@H]1CN(c2ccc(N3CCN(c4cccnn4)CC3)c(F)c2)C(=O)O1 [Example 3]
ED50 [1]: 8.8 mg/kg

CC(=O)NC[C@H]1CN(c2ccc(N3CCN(c4ccc(C)nn4)CC3)c(F)c2)C(=O)O1 [Example 4]
ED50 [1]: 6.3 mg/kg

CC(=O)NC[C@H]1CN(c2ccc(N3CCN(C(=O)CO)CC3)c(F)c2)C(=O)O1 [Example U-100592, reference compound]
U-100592 ED50 ([1]; comparator control for the Example of the same line, female mice, S. aureus UC No. 9213, 8640 min): 8.7 mg/kg
potency versus vancomycin [2]: equipotent to vancomycin
